Reference: PubChem BioAssay (NCI)
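GI50 marks 50% less growth. TGI: concentration producing complete growth inhibition.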

Experiments:
Assay in all cases: growth of human tumour cells (NCI), 384-well format
CAKI-1 renal = system: CAKI-1 renal
UACC-62 melanoma = system: UACC-62 melanoma
SR leukemia = system: SR leukemia
MDA-MB-231 breast = system: MDA-MB-231 breast
OVCAR-3 ovarian = system: OVCAR-3 ovarian
HL-60(TB) leukemia = system: HL-60(TB) leukemia
MALME-3M melanoma = system: MALME-3M melanoma
NCI-H23 lung = system: NCI-H23 lung
HOP-92 NSCLC = system: HOP-92 NSCLC
RXF 393 renal = system: RXF 393 renal
UACC-257 melanoma = system: UACC-257 melanoma
HCC-2998 colon = system: HCC-2998 colon
CCRF-CEM leukemia = system: CCRF-CEM leukemia
SW-620 colon = system: SW-620 colon
UO-31 renal = system: UO-31 renal
COLO 205 colon = system: COLO 205 colon
SF-295 CNS = system: SF-295 CNS
NCI-H460 NSCLC = system: NCI-H460 NSCLC
LOX IMVI melanoma = system: LOX IMVI melanoma
OVCAR-5 ovarian = system: OVCAR-5 ovarian
HS 578T breast = system: HS 578T breast
HOP-62 NSCLC = system: HOP-62 NSCLC
OVCAR-8 ovarian = system: OVCAR-8 ovarian
MDA-MB-435 melanoma = system: MDA-MB-435 melanoma
NCI-H322M lung = system: NCI-H322M lung
NCI-H522 lung = system: NCI-H522 lung
BT-549 breast = system: BT-549 breast
SF-268 CNS = system: SF-268 CNS
SN12C renal = system: SN12C renal
M14 melanoma = system: M14 melanoma
RPMI-8226 leukemia = system: RPMI-8226 leukemia
A549 NSCLC = system: A549 NSCLC
SK-OV-3 ovarian = system: SK-OV-3 ovarian
NCI-H226 lung = system: NCI-H226 lung
TK-10 renal = system: TK-10 renal
EKVX NSCLC = system: EKVX NSCLC
SNB-75 CNS = system: SNB-75 CNS
HCT-116 colon = system: HCT-116 colon
NCI/ADR-RES ovarian = system: NCI/ADR-RES ovarian
SF-539 CNS = system: SF-539 CNS
DU-145 prostate = system: DU-145 prostate
IGROV1 ovarian = system: IGROV1 ovarian
T-47D breast = system: T-47D breast
SK-MEL-28 melanoma = system: SK-MEL-28 melanoma
MCF7 breast = system: MCF7 breast
A498 renal = system: A498 renal
SK-MEL-2 melanoma = system: SK-MEL-2 melanoma

SMILES: COc1ccc([C@@H](O)c2cc(-c3ncnc4cc(N5CCOCC5)ccc34)c(F)cc2Cl)nn1
- GI50 (CAKI-1 renal): 1.19 µM
- TGI (CAKI-1 renal): 16 µM
- GI50 (UACC-62 melanoma): 1.16 µM
- TGI (UACC-62 melanoma): 11.8 µM
- GI50 (SR leukemia): 6.08 µM
- TGI (SR leukemia): 19.5 µM
- GI50 (MDA-MB-231 breast): 3.52 µM
- TGI (MDA-MB-231 breast): 37.4 µM
- GI50 (OVCAR-3 ovarian): 1.17 µM
- TGI (OVCAR-3 ovarian): 9.62 µM
- GI50 (HL-60(TB) leukemia): 0.522 µM
- TGI (HL-60(TB) leukemia): 1.94 µM
- GI50 (MALME-3M melanoma): 1.66 µM
- TGI (MALME-3M melanoma): 10.7 µM
- GI50 (NCI-H23 lung): 2.49 µM
- TGI (NCI-H23 lung): 14.9 µM
- GI50 (HOP-92 NSCLC): 0.583 µM
- TGI (HOP-92 NSCLC): 5.19 µM
- GI50 (RXF 393 renal): 0.553 µM
- TGI (RXF 393 renal): 3.3 µM
- GI50 (UACC-257 melanoma): 3.59 µM
- TGI (UACC-257 melanoma): 17.8 µM
- GI50 (HCC-2998 colon): 3.21 µM
- TGI (HCC-2998 colon): 11.4 µM
- GI50 (CCRF-CEM leukemia): 2.2 µM
- TGI (CCRF-CEM leukemia): 7 µM
- GI50 (SW-620 colon): 5.21 µM
- TGI (SW-620 colon): 18.9 µM
- GI50 (UO-31 renal): 1.95 µM
- TGI (UO-31 renal): 11.6 µM
- GI50 (COLO 205 colon): 3.52 µM
- TGI (COLO 205 colon): 11.1 µM
- GI50 (SF-295 CNS): 1.87 µM
- TGI (SF-295 CNS): 12.6 µM
- GI50 (NCI-H460 NSCLC): 2.19 µM
- TGI (NCI-H460 NSCLC): 13.1 µM
- GI50 (LOX IMVI melanoma): 1.81 µM
- TGI (LOX IMVI melanoma): 4.44 µM
- GI50 (OVCAR-5 ovarian): 3.47 µM
- TGI (OVCAR-5 ovarian): 21 µM
- GI50 (HS 578T breast): 0.864 µM
- TGI (HS 578T breast): 3.7 µM
- GI50 (HOP-62 NSCLC): 4.86 µM
- TGI (HOP-62 NSCLC): 26 µM
- GI50 (OVCAR-8 ovarian): 3.97 µM
- TGI (OVCAR-8 ovarian): 22.4 µM
- GI50 (MDA-MB-435 melanoma): 5.07 µM
- TGI (MDA-MB-435 melanoma): 20.6 µM
- GI50 (NCI-H322M lung): 3.88 µM
- TGI (NCI-H322M lung): 21 µM
- GI50 (NCI-H522 lung): 1.29 µM
- TGI (NCI-H522 lung): 8.26 µM
- GI50 (BT-549 breast): 1.19 µM
- TGI (BT-549 breast): 9.64 µM
- GI50 (SF-268 CNS): 6.38 µM
- TGI (SF-268 CNS): 26.8 µM
- GI50 (SN12C renal): 1.47 µM
- TGI (SN12C renal): 17.1 µM
- GI50 (M14 melanoma): 4.23 µM
- TGI (M14 melanoma): 16.9 µM
- GI50 (RPMI-8226 leukemia): 1.09 µM
- TGI (RPMI-8226 leukemia): 2.86 µM
- GI50 (A549 NSCLC): 2.6 µM
- TGI (A549 NSCLC): 12.3 µM
- GI50 (SK-OV-3 ovarian): 1.57 µM
- TGI (SK-OV-3 ovarian): 6.2 µM
- GI50 (NCI-H226 lung): 3.64 µM
- TGI (NCI-H226 lung): 24.6 µM
- GI50 (TK-10 renal): 2.79 µM
- TGI (TK-10 renal): 14.6 µM
- GI50 (EKVX NSCLC): 1.54 µM
- TGI (EKVX NSCLC): 10.7 µM
- GI50 (SNB-75 CNS): 0.668 µM
- TGI (SNB-75 CNS): 3.15 µM
- GI50 (HCT-116 colon): 3.88 µM
- TGI (HCT-116 colon): 16.4 µM
- GI50 (NCI/ADR-RES ovarian): 3.97 µM
- TGI (NCI/ADR-RES ovarian): 17.6 µM
- GI50 (SF-539 CNS): 3.38 µM
- TGI (SF-539 CNS): 28.4 µM
- GI50 (DU-145 prostate): 4.21 µM
- TGI (DU-145 prostate): 18.8 µM
- GI50 (IGROV1 ovarian): 0.682 µM
- TGI (IGROV1 ovarian): 2.45 µM
- GI50 (T-47D breast): 0.531 µM
- TGI (T-47D breast): 2.61 µM
- GI50 (SK-MEL-28 melanoma): 2.39 µM
- TGI (SK-MEL-28 melanoma): 27.8 µM
- GI50 (MCF7 breast): 0.843 µM
- TGI (MCF7 breast): 10.4 µM
- GI50 (A498 renal): 0.372 µM
- TGI (A498 renal): 1.99 µM
- GI50 (SK-MEL-2 melanoma): 16.1 µM
- TGI (SK-MEL-2 melanoma): 31.2 µM
